Test results as given in article PMC9685055, “Biological activity of new bioactive steroids deriving from biotransformation of cortisone” (Microbial Cell Factories, 2022).

Assays:
[1] = Photochemiluminescence (PCL-ACL) antioxidant assay; details: 0.1 mg/mL; Trolox equivalents per g of sample
Procedure: Photochemiluminescence assay, based on the methodology of Popov and Lewin [35], was performed to measure the antioxidant activity of cortisone, SCA and SCB compounds against superoxide anion radicals generated from luminol, a photosensitizer, when exposed to UV light at λmax = 351 nm. The antioxidant activity of compounds was measured using ACL kits (Analytic Jena, Jena, Germany) with a Photochem apparatus (Analytic Jena, Jena, Germany). In the PCL-ACL assay, the photochemical generation of free radicals is combined with the sensitive detection using chemiluminescence. In ACL studies, the kinetic light emission curve was monitored for 3 min and expressed as mM Trolox equivalents. The areas under the curves were calculated using the PCL soft control and analysis software. […] The observed inhibition of the signal was plotted against the concentration of Trolox added to the assay medium. The concentration of the added sample was such that the generated luminescence during the 3 min sampling interval fell within the limits of the standard curve. For ACL assay, 2.3 mL of reagent 1 (solvent and dilution reagent, methanol), 0.2 mL of reagent 2 (buffer solution), 25 μL of reagent 3 (photosensitizer: luminol 1 mmol L^−1), and 10 μL of standard or sample solution were mixed and measured. Luminol is used as a photosensitizer and as a detecting substance for free radicals. Trolox were used for the standard calibration curve from […].

[2] = test system: IL-8 gene expression in TNFα-stimulated HaCaT cells; experiment: TNFα-induced IL-8 gene expression, real-time PCR; type: cell-based; details: 10 μM pretreatment 24 h, then 10 ng/mL TNFα 1 h
Procedure: HaCaT cells were cultured with Dulbecco’s modified Eagle’s medium High Glucose (Lonza, Milan, Italy) supplemented with 10% FBS, 100 U/mL penicillin, 100 μg/mL streptomycin and 2 mM L-glutamine as previously described. Cells were maintained in a humidified incubator at 37 °C with 5% CO2 and incubated until the monolayer was 80% confluent. Medium was changed every 2 days.
HaCaT cells were pretreated with or without 10 μM of both SCA and SCB for 24 h. Stock solutions of the two compounds were prepared in DMSO immediately before use and diluted to the final concentration in the culture medium. In some sets of experiments, betamethasone-17-valerate (10 µg/mL) served as a positive control; dimethyl sulfoxide (DMSO) served as a solvent control. After the pretreatments, cells were stimulated with 10 ng/mL TNFα for 1 h to induce the NFκB signaling pathway. Then, media were replaced with fresh culture medium. Cells and supernatants were collected at different time points for each set of experiments as described below.
Quantitative real-time PCR was carried out as described in detail previously. Briefly, HaCaT cells were treated as indicated above and harvested for RNA extraction 3 h after the end of the proinflammatory stimulus with TNFα. […] Quantitative real-time PCR (qPCR) was performed using SYBR green on the CFX Multicolor real-time PCR detection system (Bio-Rad, Italy). […]

[3] = test system: Salmonella typhimurium TA98; experiment: Ames test (plate incorporation), strain TA98; type: cell-based
Procedure: Mutagenicity assay was performed following the plate incorporation method with the histidine-requiring Salmonella typhimurium mutant TA98 and TA100 strains. All strains (100 µl per plate of fresh overnight cultures) were checked with and without the addition of 0.5 mL of a 5% S9 exogenous metabolic activator (S9 mix). The lyophilized post-mitochondrial supernatant S9 mix (Aroclor 1254-induced, Sprague–Dawley male rat liver in 0.154 M KCl solution, Molecular Toxicology, Inc., Boone, NC, USA), commonly used for the activation of pro-mutagens to mutagenic metabolites, was stored at− 80 °C before use. The concentration tested for all the samples were 1, 5, 10, 50, 100 µL/plate of a stock solution 100 mg/mL.
A fully-grown culture of the appropriate tester strain (0.1 mL) was added to 2 mL Molten Top Agar (0.6% agar, 0.6% NaCl, 0.5 mM L-histidine/biotin solution) at 46 °C, together with 0.1 mL of each sample solution at different concentrations, and 0.5 mL S9 mix for assays with metabolic activation or 0.5 mL of phosphate buffer pH 7.4 to test without metabolic activation. The ingredients were thoroughly mixed and poured onto minimal glucose agar plates (1.5% agar in 2% Vogel–Bonner medium E with 5% glucose solution).
DMSO was used as a negative control (100 µl/plate). Positive controls were prepared as follows: 2-aminoanthracene (2 µg/plate) and 2-nitrofluorene (2 µg/plate) for TA98 with and without metabolic activator (S9 mix) respectively; 2-aminoanthracene (2 µg/plate) and sodium azide (2 µg/plate) for TA100, with and without metabolic activator (S9 mix) respectively. The plates were incubated at 37 °C for 72 h and then the his^+ revertants were checked and counted using a Colony Counter 560 Suntex (Antibioticos, Italy). A sample was considered mutagenic when the observed number of colonies was at least twofold over the spontaneous level of revertants. All determinations were made in triplicate. Relative standard deviations were computed using the statistical software […] 6.0 (StatSoft Italia srl).

[4] = TA98, + S9, 1 µL/plate of a stock solution 100 mg/mL
[5] = TA98, + S9, 5 µL/plate of a stock solution 100 mg/mL
[6] = TA98, + S9, 10 µL/plate of a stock solution 100 mg/mL
[7] = TA98, + S9, 50 µL/plate of a stock solution 100 mg/mL
[8] = TA98, + S9, 100 µL/plate of a stock solution 100 mg/mL
[9] = TA98, − S9, 1 µL/plate of a stock solution 100 mg/mL
[10] = TA98, − S9, 5 µL/plate of a stock solution 100 mg/mL
[11] = TA98, − S9, 10 µL/plate of a stock solution 100 mg/mL
[12] = TA98, − S9, 50 µL/plate of a stock solution 100 mg/mL
[13] = TA98, − S9, 100 µL/plate of a stock solution 100 mg/mL

Compound | antioxidant capacity, PCL-ACL assay [1] [µmol/g] | effect on TNFα-triggered IL-8 mRNA upregulation [2] | genotoxic activity (Ames test) [3] | average number of revertant colonies [3, 4] | t/c (revertant colonies in treated plates/untreated plates) [3, 4] | average number of revertant colonies [3, 5] | t/c (revertant colonies in treated plates/untreated plates) [3, 5] | average number of revertant colonies [3, 6] | t/c (revertant colonies in treated plates/untreated plates) [3, 6] | average number of revertant colonies [3, 7] | t/c (revertant colonies in treated plates/untreated plates) [3, 7] | average number of revertant colonies [3, 8] | t/c (revertant colonies in treated plates/untreated plates) [3, 8] | average number of revertant colonies [3, 9] | t/c (revertant colonies in treated plates/untreated plates) [3, 9] | average number of revertant colonies [3, 10] | t/c (revertant colonies in treated plates/untreated plates) [3, 10] | average number of revertant colonies [3, 11] | t/c (revertant colonies in treated plates/untreated plates) [3, 11] | average number of revertant colonies [3, 12] | also measured
Cc1ccc(O)c2c1CCC1C3CC[C@](O)([C@H](O)CO)[C@@]3(C)CC(=O)[C@@]21O (stereo partly drawn) [SCB, 1,9β,17,20β,21‐ pentahydoxy‐4‐methyl‐19‐nor‐9β‐pregna‐1,3,5(10)‐trien‐11‐one] | 1265 | completely abolish | For none of the samples genotoxic activity emerged | 34 | 1.1 | 35 | 1.1 | 35 | 1.1 | 31 | 1.0 | 30 | 0.9 | 24 | 1.0 | 23 | 0.9 | 22 | 0.9 | 21 | t/c (revertant colonies in treated plates/untreated plates) [3, 12]: 0.9; average number of revertant colonies [3, 13]: 19; t/c (revertant colonies in treated plates/untreated plates) [3, 13]: 0.8
Cc1ccc(O)c2c1CCC1C3CC[C@](O)(C(=O)CO)[C@@]3(C)CC(=O)[C@@]21O (stereo partly drawn) [SCA, 1,9β,17,21‐tetrahydoxy‐4‐methyl‐19‐nor‐9β‐pregna‐1,3,5(10)‐trien‐11,20‐dione] | 1375 | completely abolish | For none of the samples genotoxic activity emerged | 43,7 | 1.2 | 43,3 | 1.2 | 41,3 | 1.1 | 39,3 | 1.1 | 41,3 | 1.1 | 17,7 | 0.9 | 23,7 | 1.1 | 23,3 | 1.1 | 25,3 | t/c (revertant colonies in treated plates/untreated plates) [3, 12]: 1.2; average number of revertant colonies [3, 13]: 20,3; t/c (revertant colonies in treated plates/untreated plates) [3, 13]: 1.0
